Measured values published in article PMC9315884, “New Membrane Active Antibacterial and Antiviral Amphiphiles Derived from Heterocyclic Backbone of Pyridinium-4-Aldoxime” (Pharmaceuticals, 2022).
Several values for one entry are separate records, joined by “and”; a condition that tells them apart may be missing. Equal values may be shown once. Where a name gives a salt, the structure may show the parent alone. Read-outs that look alike come from different tables or passages of the source.

Legend:
[1] = test system: Escherichia coli ATCC25922; assay: Broth microdilution assay (MIC); format: cell-based; details: ATCC25922, 18 h
Description: (§1) The antibacterial activity of all compounds was evaluated by determining the minimum inhibitory concentration (MIC), which is defined as the lowest concentration of the compound at which no visible bacterial growth is detected. The compounds were tested against representatives of Gram-positive and Gram-negative strains, including the ESKAPE bacterium Staphylococcus aureus ATCC25923 and the clinical isolate of methicillin-resistant S. aureus (MRSA), which are known for their pathogenicity.
(§2) All microbial strains were maintained at ™80 °C for long-term storage and subcultured on Mueller-Hinton (MH) agar (Biolife, Italy) prior to broth microdilution experiments. The MH plates were stored at +4 °C for no longer than one month.
(§3) Antibacterial activity was evaluated using the Broth Microdilution Assay according to the Clinical and Laboratory Standard Institute’s Methods for Dilution Antimicrobial Susceptibility Test for Bacteria That Grow Aerobically; Approved Standard-Tenth Edition.
(§4) The stock solution of QAS (10 mg/mL) was prepared in 4% DMSO. Then, 100 µL of the tested QAS was added to the first well of the microtiter plate. Twofold serial dilutions in Muller-Hinton broth were performed over the entire plate at a concentration range of 5 mg/mL to 5 µg/mL. […] The minimum inhibitory concentration (MIC) was determined as the lowest concentration at which no visually detectable bacterial growth occurred in the wells.

[2] = test system: Listeria monocytogenes ATCC7644; assay: Broth microdilution assay (MIC); format: cell-based
Description: as §1, §2, §3, §4

[3] = test system: Bacillus cereus ATCC14579; assay: Broth microdilution assay (MIC); format: cell-based
Description: as §1, §2, §3, §4

[4] = test system: Enterococcus faecalis ATCC29212; assay: Broth microdilution assay (MIC); format: cell-based
Description: as §1, §2, §3, §4

[5] = test system: Pseudomonas aeruginosa ATCC27853; assay: Broth microdilution assay (MIC); format: cell-based
Description: as §1, §2, §3, §4

[6] = test system: Staphylococcus aureus ATCC25923; assay: Broth microdilution assay (MIC); format: cell-based; details: Staphylococcus aureus
Description: as §1, §2, §3, §4

[7] = test system: methicillin-resistant Staphylococcus aureus clinical strain MRSA; assay: Broth microdilution assay (MIC); format: cell-based; details: MRSA, 18 h
Description: as §1
(§5) The collection included five Gram-positive strains, including Staphylococcus aureus (ATCC 25923 and a methicillin-resistant Staphylococcus aureus clinical strain MRSA), Bacillus cereus ATCC 14579, Enterococcus faecalis ATCC 29212, and Listeria monocytogenes ATCC 7644; and three Gram-negative strains: Escherichia coli ATCC 25922, Pseudomonas aeruginosa ATCC 27853 and the food isolate Salmonella enterica. All microbial strains were maintained at ™80 °C for long-term storage and subcultured on Mueller-Hinton (MH) agar (Biolife, Italy) prior to broth microdilution experiments. The MH plates were stored at +4 °C for no longer than one month.
as §3
(§6) The stock solution of QAS (10 mg/mL) was prepared in 4% DMSO. Then, 100 µL of the tested QAS was added to the first well of the microtiter plate. Twofold serial dilutions in Muller-Hinton broth were performed over the entire plate at a concentration range of 5 mg/mL to 5 µg/mL. To each well, 50 µL of mid-exponentially grown inoculum containing 10^5 CFU/mL in Mueller-Hinton broth was added and incubated at 37 °C for 18 hours. The minimum inhibitory concentration (MIC) was determined as the lowest concentration at which no visually detectable bacterial growth occurred in the wells.

[8] = test system: Salmonella enterica food isolate; assay: Broth microdilution assay (MIC); format: cell-based; details: 18 h, S. enterica food isolate
Description: as §1, §5, §3, §6

[9] = test system: Tobacco mosaic virus (TMV); assay: Antiphytoviral activity assay (local lesions on host plant leaves); format: in vivo, Tobacco mosaic virus on Datura stramonium; details: Datura stramonium leaves, compound 100 µg/mL inoculated simultaneously with TMV
Description: Leaves of Nicotiana tabacum L. cv. Samsun plants systemically infected with Tobacco mosaic virus (TMV) were ground in 0.06 mol/L phosphate buffer, pH 7.0 (1:1, w/v) to prepare virus inocula. […] Leaves of the local host Datura stramonium L. were dusted with silicon carbide (Sigma-Aldrich, St. Louis, MO, USA) before virus inoculation, and the inoculum was diluted with inoculation buffer to obtain 5–20 lesions per inoculated leaf. Experiments were performed when the experimental plants reached the 4–6 leaf stage.
The tested QAS (10 mg/mL) were dissolved in 4% DMSO and added to the virus inocula at a final concentration of 100 µg/mL. DMSO was added to the control virus inocula at the same concentration. The control and treated plants were then rubbed with the prepared inocula and the antiviral activity of the tested compounds was evaluated by the percentage inhibition of the number of local lesions on the leaves of the treated and control plants as described in [40]. The obtained data were analyzed in Excel (Microsoft Office) and significant differences were determined by t-test.

[10] = E. coli ATCC25922, read-out: MIC
[11] = 18 h, L. monocytogenes ATCC7644, read-out: MIC
[12] = 18 h, B. cereus ATCC14579, read-out: MIC
[13] = 18 h, E. faecalis ATCC29212, read-out: MIC
[14] = 18 h, P. aeruginosa ATCC27853, read-out: MIC
[15] = S. aureus ATCC25923, 18 h, 37 °C, read-out: MIC

In the case of `ON=Cc1cc[n+](Cc2ccccc2)cc1` [Py-Bn], the MIC [1] is reported as 1250 µg/mL and 4260 µM, the MIC ([2]; ATCC7644, 18 h) is reported as > 5000 µg/mL and > 17000 µM and the MIC ([3]; ATCC14579, 18 h) is reported as > 5000 µg/mL. For the same compound, the MIC ([4]; ATCC29212, 18 h) was > 5000 µg/mL and > 17000 µM, the MIC ([5]; ATCC27853, 18 h) was > 5000 µg/mL and > 17000 µM and the MIC ([6]; ATCC25923, 18 h) was > 5000 µg/mL. For the same compound, the MIC [7] was > 5000 µg/mL and the MIC [8] was > 5000 µg/mL and > 17000 µM.
Compound `ON=Cc1cc[n+](Cc2ccc(OC(F)(F)F)cc2)cc1` (as salt: bromide) [Py-BnOCF3, N-(p-trifluoromethoxy)benzyl-4-hydroxyiminomethylpyridinium bromide] has a melting point of 175 to 176 °C.
For `ON=Cc1cc[n+](Cc2ccc(Br)cc2)cc1` [Py-BnBr], the MIC [1, 10] was 160 µg/mL, the MIC [2, 11] was 2500 µg/mL and 6720 µM and the MIC [3, 12] was 2500 µg/mL. The MIC [4, 13] was 2500 µg/mL and 6720 µM, the MIC [5, 14] was 5000 µg/mL and 13400 µM and the MIC [6, 15] was 1250 µg/mL. It also gave an MIC [7] of 1250 µg/mL and an MIC [8] of 630 µg/mL.
In the case of `ON=Cc1cc[n+](Cc2ccc(Cl)cc2)cc1` [Py-BnCl], the MIC [1, 10] is reported as 310 µg/mL, the MIC [2, 11] is reported as 2500 µg/mL and 7630 µM and the MIC [3, 12] is reported as 5000 µg/mL. The MIC [4, 13] was 5000 µg/mL and 15300 µM, the MIC [5, 14] was 5000 µg/mL and 15300 µM and the MIC [6, 15] was 1250 µg/mL. The MIC [7] was 2500 µg/mL and the MIC [8] was 2500 µg/mL and 7630 µM.
For `ON=Cc1cc[n+](CCCCCCCCCCBr)cc1.[Br-]` [Py-C10Br, N-(10-bromodecyl)-4-hydroxyiminomethylpyridinium bromide], the MIC ([1]; E. coli ATCC25922) was 630 µg/mL and 1490 µM, the MIC ([2]; ATCC7644, 18 h) was 5000 µg/mL and 11800 µM and the MIC ([3]; ATCC14579, 18 h) was 630 µg/mL. The MIC ([4]; ATCC29212, 18 h) was 5000 µg/mL and 11800 µM, the MIC ([5]; ATCC27853, 18 h) was > 5000 µg/mL and > 11800 µM and the MIC ([6]; ATCC25923, 18 h) was 630 µg/mL. The MIC [7] was 310 µg/mL, the MIC [8] was 5000 µg/mL and 11800 µM and the melting point was 103 to 105 °C.
For `ON=Cc1cc[n+](Cc2ccc(OC(F)(F)F)cc2)cc1` [Py-BnOCF3, N-(p-trifluoromethoxy)benzyl-4-hydroxyiminomethylpyridinium bromide], the MIC [1, 10] was 310 µg/mL, the MIC [2, 11] was 2500 µg/mL and 6630 µM and the MIC [3, 12] was 2500 µg/mL. The MIC [4, 13] was 2500 µg/mL and 6630 µM, the MIC [5, 14] was 2500 µg/mL and 6630 µM and the MIC [6, 15] was 310 µg/mL. The MIC [7] was 1250 µg/mL and the MIC [8] was 2500 µg/mL and 6630 µM.
In the case of `ON=Cc1cc[n+](CCCCCCCCCCCCBr)cc1.[Br-]` [Py-C12Br, N-(12-bromododecyl)-4-hydroxyiminomethylpyridinium bromide], the MIC ([1]; E. coli ATCC25922) is reported as 630 µg/mL and 1400 µM, the MIC ([2]; ATCC7644, 18 h) is reported as 1250 µg/mL and 2780 µM and the MIC ([3]; ATCC14579, 18 h) is reported as 630 µg/mL. The MIC ([4]; ATCC29212, 18 h) was 1250 µg/mL and 2780 µM, the MIC ([5]; ATCC27853, 18 h) was 2500 µg/mL and 5550 µM and the MIC ([6]; ATCC25923, 18 h) was 160 µg/mL. For the same compound, the “Number of local lesions (LLN ± SD)” value [9] was 6.3±1.6, the “Percentage of inhibition of local lesions” value ([9]; vs control plants) was 57.7% and the MIC [7] was 310 µg/mL. For the same compound, the MIC [8] was 2500 µg/mL and 5550 µM and the melting point was 109 to 110 °C.
